Measured values as given in paper PMC7450057, “Enhancing intracellular accumulation and target engagement of PROTACs with reversible covalent chemistry” (Nature Communications, 2020).
Where “and” joins values, the source holds several entries; their conditions need not be identical. Equal values may be shown once. Entries after “also recorded” stand apart in the source; their conditions may differ.

Columns and labels:
[1] = system: BTK, pBTK, IKZF1, and IKZF3; assay: Degradation of BTK, pBTK, IKZF1 and IKZF3 in Mino cells (western blot); assay type: cell-based
Protocol: (§1) The collected cells and spleen tissues were lysed in RIPA lysis buffer (50 mM Tris-HCl, pH 7.4, 150 mM NaCl, 1% NP-40, 0.5% sodium deoxycholate, 0.1% SDS) supplemented with Halt™ Protease and Phosphatase Inhibitor Cocktail (Thermo Fisher Scientific, Cat. No. PI78440) immediately before use. Lysates were centrifuged at 15,000 × g for 10 min at 4 °C and the supernatant was quantified for total protein concentration using the Pierce BCA Protein Assay (Thermo Fisher Scientific, Cat. No. 23225). Thirty micrograms of protein were loaded onto sodium dodecyl sulfate−polyacrylamide gel for electrophoresis (Bio-Rad) and transferred onto PVDF membranes (Millipore, Cat. No. IPVH00010). […] Imaging was performed using the ECL Prime chemiluminescent western blot detection reagents (GE Healthcare, Cat. No. RPN2232) by visualization of the blots to X-Ray film or with an Imager (Kindle Biosciences, Cat. No. D1001). All western blots were subsequently processed and quantified with Imager software. Protein level was normalized to β-actin or GAPDH loading controls.

p-BTK(Y233) = target: T1, p-BTK(Y233) (Mus musculus, UniProt P35991); assay: Splenic p-BTK(Y233) level in mice after single RC-1 injection (western blot); assay type: in vivo, ICR mice; conditions: for p-BTK(Y223) level, mean: Figure 5d, DMSO = 100; for p-BTK(Y233) quantification: Supplementary Figure 8, individual animals
T1 construct: from tissue; host or cells: spleen of female ICR mice
T1 sequence (P35991 whole entry): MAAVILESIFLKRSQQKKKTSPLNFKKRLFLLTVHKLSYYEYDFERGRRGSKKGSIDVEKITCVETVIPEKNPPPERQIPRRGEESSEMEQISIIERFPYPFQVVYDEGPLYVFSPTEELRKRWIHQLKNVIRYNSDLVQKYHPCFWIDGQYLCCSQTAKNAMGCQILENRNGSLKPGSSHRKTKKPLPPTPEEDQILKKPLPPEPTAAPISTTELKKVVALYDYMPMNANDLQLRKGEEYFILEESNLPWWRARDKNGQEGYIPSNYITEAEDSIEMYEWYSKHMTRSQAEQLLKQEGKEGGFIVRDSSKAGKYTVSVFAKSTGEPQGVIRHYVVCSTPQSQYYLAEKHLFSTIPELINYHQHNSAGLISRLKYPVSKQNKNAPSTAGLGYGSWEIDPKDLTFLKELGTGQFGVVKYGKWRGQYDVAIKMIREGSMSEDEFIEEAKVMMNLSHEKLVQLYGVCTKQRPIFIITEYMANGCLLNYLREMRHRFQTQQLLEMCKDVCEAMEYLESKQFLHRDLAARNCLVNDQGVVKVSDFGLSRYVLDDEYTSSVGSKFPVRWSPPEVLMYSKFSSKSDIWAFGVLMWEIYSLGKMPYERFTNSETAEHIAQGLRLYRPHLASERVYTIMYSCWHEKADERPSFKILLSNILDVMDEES
Protocol: To investigate the protein degradation effect of RC-1 in vivo, mice were subjected to single RC-1 administration at the dose of 50 or 100 mg kg^−1 (i.p.) or seven once-daily RC-1 administration at the dose of 20 mg kg^−1 (i.p.) (n = 2–3). Twenty-four hours after the one-time RC-1 injection or 24 h after the 7th injection, mice were anesthetized with isoflurane and the whole spleen was dissected and stored at −80 °C for western blot analysis of protein level.
Supplementary Figure 8. Protein degradation by BTK PROTAC RC-1 in mouse spleen. ICR mice were subjected to single IP injection of RC-1 at the dose of 50 mg/kg (n = 4) or 100 mg/kg (n = 3) and spleens were harvested 24 h after injection. (a) The splenic p-BTK(Y233), BTK, IKZF1 and IKZF3 levels were measured with Western blot. (b). Quantification of protein levels shown in (a). Data are presented as mean values ± SEM.
Asterisks indicate that the differences between samples are statistically significant, using two-tailed, unpaired t- […]
test (* p < 0.05; significant).
(1 picture or pasted object on this page, not shown here)

Mino cells = assay: AlamarBlue cell viability assay, Mino; assay type: cell-based; conditions: for Mino Cell Viability%: Figure 2f, 5 replicates
Protocol: The IC50 was calculated using GraphPad Prism software with a four-parameter dose-response curve fit.

C481S mutant BTK = target: T2, C481S mutant BTK (Homo sapiens, UniProt Q06187, C481S); assay: BTK degradation in XLA cells overexpressing C481S mutant BTK (western blot); assay type: cell-based; conditions: 24 h
T2 construct: expressed in transfected cells; host or cells: XLA cells (gift from Dr. Woyach)
T2 sequence (Q06187 whole entry C481S): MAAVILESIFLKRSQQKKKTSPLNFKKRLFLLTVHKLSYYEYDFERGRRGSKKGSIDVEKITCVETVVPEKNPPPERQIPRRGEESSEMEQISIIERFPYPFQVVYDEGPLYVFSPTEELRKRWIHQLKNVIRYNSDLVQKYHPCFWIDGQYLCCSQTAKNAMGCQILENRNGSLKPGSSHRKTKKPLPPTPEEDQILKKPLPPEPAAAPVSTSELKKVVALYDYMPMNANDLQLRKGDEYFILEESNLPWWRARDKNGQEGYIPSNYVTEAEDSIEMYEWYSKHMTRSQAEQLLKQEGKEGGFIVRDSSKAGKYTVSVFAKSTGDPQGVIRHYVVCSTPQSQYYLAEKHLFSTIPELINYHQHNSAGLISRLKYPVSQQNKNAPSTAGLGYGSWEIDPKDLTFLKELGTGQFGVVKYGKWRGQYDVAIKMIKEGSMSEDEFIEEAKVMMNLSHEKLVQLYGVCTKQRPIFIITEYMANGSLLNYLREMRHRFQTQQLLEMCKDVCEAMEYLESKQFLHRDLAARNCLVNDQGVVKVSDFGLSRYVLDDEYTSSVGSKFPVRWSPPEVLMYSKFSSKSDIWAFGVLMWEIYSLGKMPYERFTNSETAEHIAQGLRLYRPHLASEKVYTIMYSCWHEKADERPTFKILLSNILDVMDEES
Protocol: XLA cells overexpressing wild-type BTK or mutant C481S BTK were plated at the same cell number and density as the above experiments and were treated with RC-1, IRC-1, or RNC-1 at the dose of 1.6, 8.0, 40, 200, and 1000 nM for 24 h. After completion of treatment, all the cells were collected and processed for western blot analysis.
as §1

MOLM-14 cells = assay: Quantification of intracellular drug concentration by LC-MS; assay type: in vitro ADME; conditions: for Intracellular concentration: Concentration of compound, AVE / intracellular amount, AVE / intracellular amount / Intracellular concentration: Concentration of compound: 200 nM; for Intracellular concentration: Concentration of compound, AVE / intracellular amount, AVE: average of 3 replicates; for intracellular amount: initial amount 0.4000 nmol; for Intracellular concentration: Concentration of compound: sample volume 400 µL
Protocol: MOLM-14 cells were seeded at a density of 0.5 × 10^6 per mL in 2 mL medium. […] The samples were immediately centrifuged at 12,000 × g for 15 min at 4 °C, then removing the supernatant. In all, 400 μL of NP-40 lysis buffer was added to the cell pellet and mixed thoroughly. The mixtures were rocked for 1 h at 4 °C and centrifuged at 12,000 × g for 15 min at 4 °C. Then the supernatant was transferred to new EP tubes. In total, 20 µL supernatant was extracted with 180 µL of acetonitrile (containing internal standard: 250 nM of RNC-Ctrl) and centrifuged at the same conditions described above. Take 75 μL of supernatant for liquid chromatography-mass spectrometry analysis.
The mass spectrometer was operated in positive SIM ion mode (fragmentor 120 V; cycle time 0.6 s/cycle; Agilent Technologies 6130 Quadrupole LC/MS).

Rec-1 = assay: IC50 in MCL cell lines (Supplementary Table 2), Rec-1; conditions: for Cell Viability (%): Rec-1 cells, replicate wells

CN(CCCNC(=O)CNc1cccc2c1C(=O)N(C1CCC(=O)NC1=O)C2=O)C(C)(C)C=C(C#N)C(=O)N1CCC[C@@H](n2nc(-c3ccc(Oc4ccccc4)cc3)c3c(N)ncnc32)C1 (some centres unmarked) [RC-1]
degradation of BTK, pBTK, IKZF1, IKZF3 (in words) [1]: induced degradation of BTK, pBTK, IKZF1, and IKZF3; also recorded: can degrade not only BTK and phosphorylated BTK but also IKZF1 and IKZF3
p-BTK(Y223) level, mean (p-BTK(Y233); 1 injection): 96.2894
p-BTK(Y223) level, mean (p-BTK(Y233); 7 injections): 85.9605
p-BTK(Y233) quantification (p-BTK(Y233); RC-1 50 mg/kg, 50 mg/kg): 61.7244 and 50.2464 and 71.4895 and 26.7569
p-BTK(Y233) quantification (p-BTK(Y233); RC-1 100 mg/kg, 100 mg/kg): 42.1872 and 10.8062 and 16.7176
Mino Cell Viability% (Mino cells; 1.00E-06 M): 28.3764% and 24.0469% and 29.6497% and 18.1013% and 27.4262%
Mino Cell Viability% (Mino cells; 1.60E-09 M): 86.471% and 91.0355% and 88.9002% and 84.3749% and 77.1755%
Mino Cell Viability% (Mino cells; 2.00E-07 M): 40.1501% and 37.7601% and 35.1644% and 26.339% and 31.6381%
Mino Cell Viability% (Mino cells; 3.20E-10 M): 96.9028% and 99.5475% and 70.4757% and 81.6714% and 61.4054%
Mino Cell Viability% (Mino cells; 4.00E-08 M): 90.2127% and 74.3055% and 49.5631% and 47.134% and 61.6895%
Mino Cell Viability% (Mino cells; 5.00E-06 M): 17.0239% and 17.5724% and 29.8456% and 19.8449% and 25.2419%
Mino Cell Viability% (Mino cells; 8.00E-09 M): 98.4014% and 91.3588% and 67.7918% and 72.9048% and 65.2157%
IC50 (Mino cells; Homo sapiens, Mino cells, 72 h, Alamar Blue): 0.08 µM
BTK degradation (in words) (C481S mutant BTK): dose-dependent BTK degradation; also recorded: degrades both wild-type BTK and the C481S mutant with similar potency
Intracellular concentration: Concentration of compound, AVE (MOLM-14 cells; 5 min): 0.1304 µM
intracellular amount, AVE (MOLM-14 cells; 5 min): 0.0522 nmol
intracellular amount (MOLM-14 cells; 5 min, single replicates): 0.0607 nmol and 0.0507 nmol and 0.0451 nmol
Intracellular concentration: Concentration of compound (MOLM-14 cells; 5 min, single replicates): 0.1517 µM and 0.1267 µM and 0.1128 µM
Intracellular concentration: Concentration of compound, AVE (MOLM-14 cells; 15 min): 0.1127 µM
intracellular amount, AVE (MOLM-14 cells; 15 min): 0.0451 nmol
intracellular amount (MOLM-14 cells; 15 min, single replicates): 0.0487 nmol and 0.0414 nmol and 0.0451 nmol
Intracellular concentration: Concentration of compound (MOLM-14 cells; 15 min, single replicates): 0.1218 µM and 0.1035 µM and 0.1128 µM
Intracellular concentration: Concentration of compound, AVE (MOLM-14 cells; 30 min): 0.1159 µM
intracellular amount, AVE (MOLM-14 cells; 30 min): 0.0464 nmol
intracellular amount (MOLM-14 cells; 30 min, single replicates): 0.0474 nmol and 0.0471 nmol and 0.0447 nmol
Intracellular concentration: Concentration of compound (MOLM-14 cells; 30 min, single replicates): 0.1184 µM and 0.1177 µM and 0.1117 µM
Intracellular concentration: Concentration of compound, AVE (MOLM-14 cells; 60 min): 0.1117 µM
intracellular amount, AVE (MOLM-14 cells; 60 min): 0.0447 nmol
intracellular amount (MOLM-14 cells; 60 min, single replicates): 0.0471 nmol and 0.0390 nmol and 0.0480 nmol
Intracellular concentration: Concentration of compound (MOLM-14 cells; 60 min, single replicates): 0.1177 µM and 0.0975 µM and 0.1199 µM
Intracellular concentration: Concentration of compound, AVE (MOLM-14 cells; 90 min): 0.1080 µM
intracellular amount, AVE (MOLM-14 cells; 90 min): 0.0432 nmol
intracellular amount (MOLM-14 cells; 90 min, single replicates): 0.0436 nmol and 0.0454 nmol and 0.0405 nmol
Intracellular concentration: Concentration of compound (MOLM-14 cells; 90 min, single replicates): 0.1091 µM and 0.1136 µM and 0.1013 µM
Intracellular concentration: Concentration of compound, AVE (MOLM-14 cells; 120 min): 0.1194 µM
intracellular amount, AVE (MOLM-14 cells; 120 min): 0.0478 nmol
intracellular amount (MOLM-14 cells; 120 min, single replicates): 0.0460 nmol and 0.0513 nmol
Intracellular concentration: Concentration of compound (MOLM-14 cells; 120 min, single replicates): 0.1151 µM and 0.1282 µM
Intracellular concentration: Concentration of compound, AVE (MOLM-14 cells; 240 min): 0.1060 µM
intracellular amount, AVE (MOLM-14 cells; 240 min): 0.0424 nmol
intracellular amount (MOLM-14 cells; 240 min, single replicates): 0.0426 nmol and 0.0421 nmol and 0.0424 nmol
Intracellular concentration: Concentration of compound (MOLM-14 cells; 240 min, single replicates): 0.1065 µM and 0.1054 µM and 0.1061 µM
Cellular concentration (MOLM-14 cells; 5 min, Mean): 0.0522 nmol/million cells
Cellular concentration (MOLM-14 cells; 5 min, single replicates, MOLM-14, 200 nM): 0.0607 nmol/million cells and 0.0507 nmol/million cells and 0.0451 nmol/million cells
Cellular concentration (MOLM-14 cells; 15 min, Mean): 0.0451 nmol/million cells
Cellular concentration (MOLM-14 cells; 15 min, single replicates, MOLM-14, 200 nM): 0.0487 nmol/million cells and 0.0414 nmol/million cells and 0.0451 nmol/million cells
Cellular concentration (MOLM-14 cells; 30 min, Mean): 0.0464 nmol/million cells
Cellular concentration (MOLM-14 cells; 30 min, single replicates, MOLM-14, 200 nM): 0.0474 nmol/million cells and 0.0471 nmol/million cells and 0.0447 nmol/million cells
Cellular concentration (MOLM-14 cells; 60 min, Mean): 0.0447 nmol/million cells
Cellular concentration (MOLM-14 cells; 60 min, single replicates, MOLM-14, 200 nM): 0.0390 nmol/million cells and 0.0480 nmol/million cells and 0.0471 nmol/million cells and 0.039 nmol/million cells and 0.048 nmol/million cells
Cellular concentration (MOLM-14 cells; 90 min, Mean): 0.0432 nmol/million cells
Cellular concentration (MOLM-14 cells; 90 min, single replicates, MOLM-14, 200 nM): 0.0436 nmol/million cells and 0.0454 nmol/million cells and 0.0405 nmol/million cells
Cellular concentration (MOLM-14 cells; 120 min, Mean): 0.0478 nmol/million cells
Cellular concentration (MOLM-14 cells; 120 min, single replicates, MOLM-14, 200 nM): 0.0460 nmol/million cells and 0.046 nmol/million cells and 0.0513 nmol/million cells
Cellular concentration (MOLM-14 cells; 240 min, Mean): 0.0424 nmol/million cells
Cellular concentration (MOLM-14 cells; 240 min, single replicates, MOLM-14, 200 nM): 0.0426 nmol/million cells and 0.0421 nmol/million cells and 0.0424 nmol/million cells
intracellular concentration of RC-1 relative to RNC-1 and IRC-1 (MOLM-14 cells; LC-MS of cell lysates): ~ 2 fold
IC50 (Rec-1; Rec-1, triplicates): 4.1 µM
Cell Viability (%) (Rec-1; 1.25E-06 M): 86.4761% and 87.1335% and 88.5619%
Cell Viability (%) (Rec-1; 1.56E-07 M): 110.78% and 108.392% and 108.404%
Cell Viability (%) (Rec-1; 2.50E-06 M): 70.381% and 67.6766% and 67.9066%
Cell Viability (%) (Rec-1; 3.13E-07 M): 100.052% and 101.66% and 95.2827%
Cell Viability (%) (Rec-1; 5.00E-06 M): 39.6222% and 42.2011% and 40.0645%
Cell Viability (%) (Rec-1; 6.25E-07 M): 96.6812% and 94.3055% and 92.2914%
Cell Viability (%) (Rec-1; 7.81E-08 M): 102.045% and 105.031% and 106.253%
